Source: patent US20260355217A1, “HPK1 INHIBITOR, PREPARATION METHOD THEREFOR, AND USE THEREOF” (Beijing Earthwise Technology Co., Ltd., priority 2022, published 2026)

Key:
[1] = target: T1, pSLP76 (Phospho-SLP-76 (Ser376)), Jurkat E6-1 cells (Homo sapiens, UniProt Q92918); assay: Phospho-SLP-76 (Ser376) HTRF Assay in Jurkat E6-1 cells; type: cell-based; settings: compound 4 hours, then anti-CD3 20 minutes
T1 construct: read-out phospho-SLP-76 (Ser376) HTRF
Protocol: Assay Example 3 Phospho-SLP-76 (Ser376) HTRF Assay
A compound was dissolved in DMSO to 10 mM, and then diluted three-fold with DMSO to 10 dosages in a 96-well plate. Then, 3 μL of the diluted compound sample was transferred to a 96-well plate with 97 μL of cell culture medium, and the plate was shaken for 5 minutes. According to the experimental design diagram, 7.5 μL of the diluted compound sample was transferred to a cell plate. Final concentrations of the compound in this assay were 10000.00, 3333.33, 1111.11, 370.37, 123.46, 41.15, 13.72, 4.57, 1.52 and 0.51 nM.
In this assay, the density of Jurkat E6-1 cells was maintained between 3*10^5 to 3*10^6 cells/mL. The cell culture was replaced with fresh culture medium every 2 to 3 days (depending on the cell density). 30 μL of Jurkat E6-1 (300,000 cells) was added to a 96-well plate and incubated in a 37 °C incubator for 1 hour. Then, according to the experimental design diagram, compounds (6×, 7.5 μL) were added to treat the cells for 4 hours, respectively. After 4 hours, purified anti-human anti-CD3 antibodies (6×, 7.5 μL) were added to treat the cells for 20 minutes. After 20 minutes, 15 μL of cell lysis buffer (4×) was added, and the cells were lysed at 25 °C with shaking (250 rpm) for 1 hour. Then, according to the experimental design diagram, 16 μL of cell lysate was transferred to a 384-well plate using a pipette. After the transfer, 4 μL of antibody detection mixture was added. After being placed at room temperature overnight, the plate was read by EnVision multi-function microplate reader to read the FRET signal (the ratio of HTRF 665/615 was calculated from the readings at 665 nm and 615 nm).
The ratio of the signal at 665 nm to the signal at 615 nm was converted to the percentage of inhibition. Inhibition %=(maximum value−sample value)/(maximum value−minimum value)×100. The minimum value refers to the signal value of a well without anti-CD3 antibody stimulation during the treatment of cells, and the maximum value refers to the signal value of a well with anti-CD3 antibody stimulation but without the compound during the treatment of cells. IC50 values were calculated by XLFit (version 5.3.1.3) in excel. Equation: Y=Bottom+(Top−Bottom)/(1+(IC50/X)^HillSlope).

[2] = system: human Pan T cells (IL-2 release); assay: Human Pan T Cell IL-2 ELISA; type: cell-based; settings: Homo sapiens, T-cell, 48 h, Anti-CD3/Anti-CD28, IL-2 ELISA
Protocol: Assay Example 4 Human Pan T Cell IL-2 ELISA
A compound was dissolved in DMSO to 10 mM, and then diluted three-fold with DMSO to 9 dosages in a 96-well plate. Then, 10 μL of the diluted compound sample was transferred to a 96-well plate with 90 μL of cell culture medium, and the plate was shaken for 5 minutes. Then, 5 μL of the diluted compound sample was transferred to a 96-well plate with 120 μL of cell culture medium, and the plate was shaken for 5 minutes. According to the experimental design diagram, 50 μL of the diluted compound sample was transferred to a cell plate. Final concentrations of the compound in this assay were 10000.00, 5000, 2500, 1250, 625, 312.5, 156.25, 78.125 and 39.063 nM.
The assay was conducted in a 96-well plate. On the first day of the assay, Anti-CD3 was added to the 96-well plate and incubated in a 4 °C refrigerator overnight. On the second day of the assay, human Pan T cells were recovered, centrifuged and counted. The cell density was adjusted to 1*10^6 cells/ml. Then, 100 μL of cells were added to the 96-well plate washed with PBS and added with Anti-CD3; according to the experimental design diagram, 50 μL of diluted Anti-CD28 and 50 μL of the diluted compound were added to each well, centrifuged, and the cell plate was placed and incubated in an incubator for 48 hours; after 48 hours, the plate was centrifuged and the supernatant was collected for IL-2 ELISA.
The signal value of light absorption was converted into a multiple. Multiple=sample value/the average value of control wells. The average value of control wells refers to the value measured in wells with DMSO added. EC50 values were calculated by XLFit (version 5.3.1.3) in Excel. Equation: Y=Bottom+(Top−Bottom)/(1+(EC50/X)^HillSlope).

HPK1 = HPK1 (Homo sapiens, UniProt Q92918); assay: HPK1 HTRF Kinase Assay; type: biochemical; settings: 1000 μM ATP, 50 nM HPK1, STK1 substrate, 120 minutes
Protocol: Assay Example 2 HPK1 HTRF Kinase Assay
The assay was performed in a 384-well plate (Greier, Cat #784075) with a total reaction system of 20 μL. 1×kinase buffer (5*enzyme buffer, 5 mM MgCl2, 0.1% BSA, 1 mM DTT), […] and 1000 µM ATP, and 10 μL of Detection Mix (0.25 nM STK antibody, 62.5 nM XL665) were included in the reaction mixture. The reaction was initiated by adding 50 nM HPK1. After 120 minutes of reaction, the assay was terminated by adding 10 μL of Detection Mix. After being incubated at room temperature for 60 minutes, the assay plate was read by EnVision multi-function microplate reader to read the FRET signal (the ratio of HTRF 665/615 was calculated from the readings at 665 nm and 615 nm).
The ratio of the signal at 665 nm to the signal at 615 nm was converted to the percentage of inhibition. Inhibition %=(maximum value−sample value)/(maximum value−minimum value)×100. The minimum value refers to the value measured in a well without enzyme but with DMSO and substrate, and the maximum value refers to the value measured in a well with DMSO, enzyme and substrate. IC50 values were calculated by XLFit (version 5.3.1.3) in Excel. Equation: Y=Bottom+(Top−Bottom)/(1+(IC50/X)^HillSlope).

Sequence of HPK1 (Q92918 whole entry): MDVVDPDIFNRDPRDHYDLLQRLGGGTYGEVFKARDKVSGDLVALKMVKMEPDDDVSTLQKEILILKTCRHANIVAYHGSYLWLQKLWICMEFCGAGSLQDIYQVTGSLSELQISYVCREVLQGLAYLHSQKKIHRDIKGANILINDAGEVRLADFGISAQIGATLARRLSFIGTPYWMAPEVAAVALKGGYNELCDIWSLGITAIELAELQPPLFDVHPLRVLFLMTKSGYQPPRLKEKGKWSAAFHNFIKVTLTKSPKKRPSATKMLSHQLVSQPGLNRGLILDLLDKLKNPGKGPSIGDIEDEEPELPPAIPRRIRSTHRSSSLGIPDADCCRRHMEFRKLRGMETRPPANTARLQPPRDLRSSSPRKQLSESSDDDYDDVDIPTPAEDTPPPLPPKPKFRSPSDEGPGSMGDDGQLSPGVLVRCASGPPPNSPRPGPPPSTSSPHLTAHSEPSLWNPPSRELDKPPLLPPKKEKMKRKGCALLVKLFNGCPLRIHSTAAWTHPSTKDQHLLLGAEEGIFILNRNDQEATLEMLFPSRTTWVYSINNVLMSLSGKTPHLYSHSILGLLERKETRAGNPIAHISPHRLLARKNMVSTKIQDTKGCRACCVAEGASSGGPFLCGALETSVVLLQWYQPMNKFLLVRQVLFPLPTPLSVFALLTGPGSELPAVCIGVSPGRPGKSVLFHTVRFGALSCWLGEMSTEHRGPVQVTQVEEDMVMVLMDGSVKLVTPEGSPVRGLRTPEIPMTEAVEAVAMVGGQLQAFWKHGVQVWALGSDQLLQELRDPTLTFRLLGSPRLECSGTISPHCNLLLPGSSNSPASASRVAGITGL
T1 sequence (Q92918 whole entry): as above

Structure (SMILES) | IC50 [1] | EC50 [2] | IC50 (HPK1)
COc1cccn2c(-c3cc4c(c5c3CCNC5=O)Nc3ccc(N5CCOCC5)cc3C4(C)C)cnc12 [Example 13] | 0.0244 µM | 0.00312 µM | 0.00932 µM
CC1(C)c2cc(N3CCOCC3)ccc2Nc2c1cc(-c1cncc(N3CCOCC3)c1)c1c2C(=O)NC1 [Example 85] |  | 0.0694 µM | 0.0362 µM
